Data as given in patent US10596172B2 (Celgene CAR LLC, priority 2008, dated 2020).

Experiments:
[1] = target: Erbb4 kinase domain (Homo sapiens (Human), UniProt Q15303); assay: Mass spectrometry for ERBB4; assay type: binding; settings: 60 minutes at 10-fold excess of compound
Protocol: Erbb4 kinase domain (Upstate) was incubated with compound for 60 minutes at 10-fold excess of compound I-4 and I-11 to protein. 1 μl aliquots of the samples (total volume of 4.24 ul) were diluted with 10 μl of 0.1% TFA prior to micro C4 ZipTipping directly onto the MALDI target using Sinapinic acid as the desorption matrix (10 mg/ml in 0.1% TFA:Acetonitrile 50:50). For intact protein mass measurement the instrument was set in Linear mode using a pulsed extraction setting of 16,952 for the myoglobin standard used to calibrate the instrument (Shimadzu Axima TOF^2).
Intact ErbB4 protein occurs at MH+ of 35850 with corresponding sinapinic (matrix) adducts occurring about 200 Da higher. A stoichiometric incorporation of the test compound (I-4 and I-11) (Mw of 410 Da) produced a new mass peak which is approximately 410 Da higher (MH+ of 36260).

[2] = system: Human naïve B cells; assay: Human primary B cell proliferation assay; assay type: cell-based; settings: 5 μg/ml α-IgM 72 hours, 3H-thymidine incorporation
Protocol: Human naïve B cells were purified from 100 mL whole blood using a MACS purification kit designed to isolate CD19+, IgD+ cells by negative selection. Purified naïve B cells were resuspended in RPMI complete and stimulated with 5 μg/ml α-IgM for 72 hours. ^3H-Thymidine was included in the culture media for the final 16 h, cells were harvested and ^3H incorporation measured. Inhibition of B cell proliferation correlates with inhibition of BTK substrate phosphorylation after α-IgM stimulation.

[3] = target: JAK3 (Homo sapiens (Human), UniProt P52333); assay: Mass spectrometry for Janus-3 kinase (JAK3); assay type: binding; settings: 3 hrs at 10x excess, tryptic digest
JAK3, sequence (P52333 whole entry): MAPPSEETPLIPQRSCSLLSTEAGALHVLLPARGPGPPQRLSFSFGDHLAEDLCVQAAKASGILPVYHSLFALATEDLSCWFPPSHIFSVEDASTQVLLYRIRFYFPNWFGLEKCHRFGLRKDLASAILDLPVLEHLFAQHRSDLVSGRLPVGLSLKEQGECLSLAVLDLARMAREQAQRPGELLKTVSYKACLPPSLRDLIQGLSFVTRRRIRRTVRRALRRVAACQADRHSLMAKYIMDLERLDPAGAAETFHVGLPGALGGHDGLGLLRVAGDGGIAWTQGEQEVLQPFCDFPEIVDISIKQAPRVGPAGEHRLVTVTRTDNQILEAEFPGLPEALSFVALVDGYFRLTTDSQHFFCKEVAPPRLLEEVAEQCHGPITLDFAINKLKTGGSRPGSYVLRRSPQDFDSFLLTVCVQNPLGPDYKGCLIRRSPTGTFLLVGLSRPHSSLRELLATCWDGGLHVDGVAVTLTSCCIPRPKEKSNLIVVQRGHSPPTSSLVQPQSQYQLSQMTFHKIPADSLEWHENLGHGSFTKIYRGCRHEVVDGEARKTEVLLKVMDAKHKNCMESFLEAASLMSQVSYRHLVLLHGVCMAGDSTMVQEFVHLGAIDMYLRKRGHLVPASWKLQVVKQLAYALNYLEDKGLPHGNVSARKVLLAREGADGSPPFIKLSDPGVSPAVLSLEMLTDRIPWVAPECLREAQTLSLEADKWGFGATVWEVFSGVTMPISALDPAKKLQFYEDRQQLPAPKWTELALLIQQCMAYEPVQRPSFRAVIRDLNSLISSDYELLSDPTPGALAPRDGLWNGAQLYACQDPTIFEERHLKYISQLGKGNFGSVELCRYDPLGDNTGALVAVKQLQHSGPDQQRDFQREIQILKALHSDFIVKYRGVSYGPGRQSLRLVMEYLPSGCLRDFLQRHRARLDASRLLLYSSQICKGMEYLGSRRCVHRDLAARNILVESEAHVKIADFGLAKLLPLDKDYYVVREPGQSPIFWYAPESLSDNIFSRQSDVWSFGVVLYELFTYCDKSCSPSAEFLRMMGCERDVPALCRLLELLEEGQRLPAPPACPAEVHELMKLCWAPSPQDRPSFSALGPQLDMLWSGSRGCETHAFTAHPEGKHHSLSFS
Protocol: JAK3 kinase (33 pmols; Invitrogen) was incubated with (I-7) (327 pmols) for 3 hrs at 10× excess prior to tryptic digestion. Iodoacetamide was used as the alkylating agent after compound incubation. For tryptic digests a 5 ul aliquot (5.5 pmols) was diluted with 15 ul of 0.1% TFA prior to micro C18 Zip Tipping directly onto the MALDI target using alpha cyano-4-hydroxy cinnamic acid as the matrix (5 mg/ml in 0.1% TFA:Acetonitrile 50:50).
As depicted in FIG. 11, the expected peptide ([…]) to be modified was immediately evident as the largest peak at MH+ of 1725.88. This is the mass to be expected when compound I-7, with an adduct mass of 345.16, is added to the peptide mass of 1380.70. […] There was also evidence for a number of other modified peptides, however, their signals were low.
To further verify the presence of the modified peptides with compound I-7, the peptides at MH+ of 1725.88 and 1118.55 were subjected to PSD (MS/MS) analysis. A correlational analysis with the homo sapien database identified the correct peptides as being modified by I-7.
For tryptic digests the instrument was set in Reflectron mode with a pulsed extraction setting of 2200. Calibration was done using the Laser Biolabs Pep Mix standard ([…], 1296.69, 1672.92, 2093.09, 2465.20). […]

[4] = target: BTK (Homo sapiens (Human), UniProt Q06187); assay: BTK occupancy from in vitro samples by ELISA (Ramos cells); assay type: cell-based
BTK, sequence (Q06187 whole entry): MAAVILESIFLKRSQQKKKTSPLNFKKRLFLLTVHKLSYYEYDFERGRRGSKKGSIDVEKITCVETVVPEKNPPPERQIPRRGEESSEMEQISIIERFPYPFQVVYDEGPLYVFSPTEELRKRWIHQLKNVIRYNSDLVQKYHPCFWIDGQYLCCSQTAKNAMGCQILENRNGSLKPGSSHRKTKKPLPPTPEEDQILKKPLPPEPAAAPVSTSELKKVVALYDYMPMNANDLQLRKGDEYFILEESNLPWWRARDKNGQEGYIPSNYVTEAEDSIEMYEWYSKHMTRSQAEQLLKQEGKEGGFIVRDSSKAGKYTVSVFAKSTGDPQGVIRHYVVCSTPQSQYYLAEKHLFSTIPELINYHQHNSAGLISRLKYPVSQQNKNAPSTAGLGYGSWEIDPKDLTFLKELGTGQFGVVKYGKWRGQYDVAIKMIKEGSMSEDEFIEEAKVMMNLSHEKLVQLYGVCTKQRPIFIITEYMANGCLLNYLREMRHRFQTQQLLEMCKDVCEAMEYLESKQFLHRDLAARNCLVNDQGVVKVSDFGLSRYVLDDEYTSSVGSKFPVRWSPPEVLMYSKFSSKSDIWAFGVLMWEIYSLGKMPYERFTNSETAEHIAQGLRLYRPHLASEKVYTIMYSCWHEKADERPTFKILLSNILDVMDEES
Protocol: In order to determine the amount of free BTK in cell or tissue lysates, an ELISA protocol was employed that utilizes a biotinylated probe compound that binds only to free, unoccupied BTK. The conjugated biotin is captured on a streptavidin-coated ELISA plate and detected with a mouse anti-BTK antibody (Becton Dickinson, Franklin Lakes, N.J., USA) and a secondary goat anti-mouse HRP antibody (Zymed, South San Francisco, Calif., USA).
All samples were prepared with equal concentrations of Biorad lysis buffer (Hercules, Calif., USA), 0.5% bovine serum albumin in PBS with 0.05% Tween-20 to give a final concentration of 1 μM I-215. Samples were incubated in a mixing plate for 1 hr at room temperature while shaking to allow probe compound I-215 to bind to free BTK. After incubation with I-215, samples were added to a washed, streptavidin-coated ELISA plate (Pierce, Rockford, Ill., USA) and incubated for 1 hr at room temperature while shaking. The plate was then washed with PBS containing 0.05% Tween-20 using an automatic plate washer. Anti-BTK antibody was prepared at 1:1000 dilution in 0.5% BSA in PBS (0.05% Tween-20) and added to the ELISA plate. The plate was incubated for 1 hr at room temperature while shaking. The plate was washed as described above and the secondary HRP antibody was prepared at 1:5000 dilution in 0.5% BSA in PBS (0.05% Tween-20). The plate was incubated and washed as described above. TMB was added to the plate, and OD650 was monitored until reaching 1 OD unit. The reaction was then stopped with addition of H2SO4. The plate was analyzed using Gen 5 software, and a 4 Parameter Logistic curve was employed to quantitate samples. Recombinant BTK (Invitrogen, Carlsbad, Calif., USA) was used for the standard curve.
A concentration designated as “A” is greater than 1 nM; a concentration designated as “B” is greater than 10 nM; and a concentration designated as “C” is greater than 50 nM.

Erbb4 kinase domain, sequence (Q15303 718-985): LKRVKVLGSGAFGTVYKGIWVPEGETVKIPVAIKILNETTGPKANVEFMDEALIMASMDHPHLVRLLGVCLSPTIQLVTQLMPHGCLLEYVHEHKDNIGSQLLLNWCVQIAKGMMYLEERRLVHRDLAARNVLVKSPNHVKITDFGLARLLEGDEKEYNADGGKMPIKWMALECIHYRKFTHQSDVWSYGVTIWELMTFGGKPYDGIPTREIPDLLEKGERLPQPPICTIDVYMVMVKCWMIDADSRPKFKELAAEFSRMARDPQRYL

covalent modification of ErbB4 by mass spectrometry [1] | covalent modification of JAK3 peptide LVMEYLPSGCLR (Cys909) by mass spectrometry [3] | >50% occupancy (concentration at which >50% of BTK is occupied) [4] | >90% occupancy (concentration at which >90% of BTK is occupied) [4] | Structure (SMILES) | EC50 [2] [nM]
covalent modification |  |  |  | Cc1cccc(Nc2nc(Nc3cccc(NC(=O)/C=C/CN(C)C)c3)ncc2F)c1 [Compound I-4, (E)-4-(dimethylamino)-N-(3-(5-fluoro-4-(m-tolylamino)pyrimidin-2-ylamino)phenyl)but-2-enamide] | 
 | not entirely complete | A (greater than 1 nM) | B (greater than 10 nM) | C=CC(=O)Nc1cccc(Nc2nc(Nc3ccccc3)ncc2C)c1 [Compound I-7, N-(3-(5-methyl-2-(phenylamino)pyrimidin-4-ylamino)phenyl)acrylamide] | 1 to 10
